According to patent publication US10807978B2, “Process for preparation of palbociclib” (DR. REDDY'S LABORATORIES LIMITED, priority 2016, dated 2020):

Experiment: Surface Area (BET method)
Assay type: physicochemical
Conditions: isolated palbociclib free base solid

SMILES	Surface Area (BET method) [m^2/g]
CC(=O)c1c(C)c2cnc(Nc3ccc(N4CCNCC4)cn3)nc2n(C2CCCC2)c1=O [Example 9, 6-acetyl-8-cyclopentyl-5-methyl-2-{[5-(piperazin-1-yl)pyridin-2yl]amino}-pyrido[2,3-d]pyrimidin-7(8H)-one]	3.61
CC(=O)c1c(C)c2cnc(Nc3ccc(N4CCNCC4)cn3)nc2n(C2CCCC2)c1=O [Example 11, 6-acetyl-8-cyclopentyl-5-methyl-2-{[5-(piperazin-1-yl)pyridin-2yl]amino}-pyrido[2,3-d]pyrimidin-7(8H)-one]	9.38
